# Laboratory results reported in PubChem BioAssay (NCI).
#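 96-well plates; 48 h exposure; 5 concentrations. Endpoints by linear interpolation between flanking doses. Not reached: highest tested concentration assigned. GI50 marks 50% less growth. TGI marks complete inhibition of growth.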
# Experiments:
# Assay in all cases: DTP human tumour cell line panel, 48 h
# [1] = test system: SW-620 colon
# [2] = test system: UACC-62 melanoma
# [3] = test system: NCI-H522 lung
# [4] = test system: HCT-116 colon
# [5] = test system: UO-31 renal
# [6] = test system: CCRF-CEM leukemia
# [7] = test system: K-562 leukemia
# [8] = test system: SNB-19 CNS
# [9] = test system: ACHN renal
# [10] = test system: OVCAR-5 ovarian
# [11] = test system: CAKI-1 renal
# [12] = test system: RPMI-8226 leukemia
# [13] = test system: HT29 colon
# [14] = test system: BT-549 breast
# [15] = test system: SK-OV-3 ovarian
# [16] = test system: MDA-N
# [17] = test system: SK-MEL-2 melanoma
# [18] = test system: OVCAR-3 ovarian
# [19] = test system: SNB-75 CNS
# [20] = test system: SN12C renal
# [21] = test system: SR leukemia
# [22] = test system: NCI-H226 lung
# [23] = test system: OVCAR-4 ovarian
# [24] = test system: MOLT-4 leukemia
# [25] = test system: SK-MEL-5 melanoma
# [26] = test system: A498 renal
# [27] = test system: HCC-2998 colon
# [28] = test system: U251 CNS
# [29] = test system: NCI-H23 lung
# [30] = test system: 786-0 renal
# [31] = test system: EKVX NSCLC
# [32] = test system: T-47D breast
# [33] = test system: HCT-15 colon
# [34] = test system: RXF 393 renal
# [35] = test system: A549 NSCLC
# [36] = test system: LOX IMVI melanoma
# [37] = test system: KM12 colon
# [38] = test system: HS 578T breast
# [39] = test system: MCF7 breast
# [40] = test system: MDA-MB-435
# [41] = test system: COLO 205 colon
# [42] = test system: MDA-MB-231 breast
# [43] = test system: DU-145 prostate
# [44] = test system: HL-60(TB) leukemia
# [45] = test system: HOP-62 NSCLC
# [46] = test system: SK-MEL-28 melanoma
# [47] = test system: M14 melanoma
# [48] = test system: IGROV1 ovarian
# [49] = test system: TK-10 renal
# [50] = test system: NCI-H460 lung
# [51] = test system: PC-3 prostate
# [52] = test system: NCI/ADR-RES ovarian
# [53] = test system: SF-539 CNS
# [54] = test system: MALME-3M melanoma
# [55] = test system: SF-295 CNS
# [56] = test system: SF-268 CNS
# [57] = test system: OVCAR-8 ovarian
# [58] = test system: HOP-92 NSCLC
# [59] = test system: UACC-257 melanoma
smiles,measurement,setting,value
Nc1nc(N)c2c(n1)CCC(S(=O)(=O)c1ccc3ccccc3c1)C2 (stereo unspecified),TGI,[1],> 100 µM
same,GI50,[2],0.678 µM
same,TGI,[2],> 100 µM
same,GI50,[3],2.94 µM
same,TGI,[3],34.5 µM
same,TGI,[4],> 100 µM
same,TGI,[5],> 75.3 µM
same,TGI,[6],> 100 µM
same,GI50,[7],0.315 µM
same,TGI,[7],63.6 µM
same,TGI,[8],> 85.2 µM
same,TGI,[9],> 100 µM
same,TGI,[10],> 100 µM
same,TGI,[11],> 100 µM
same,TGI,[12],> 84.4 µM
same,TGI,[13],> 51.2 µM
same,TGI,[14],> 100 µM
same,TGI,[15],> 100 µM
same,TGI,[16],> 100 µM
same,GI50,[17],9.79 µM
same,TGI,[17],> 100 µM
same,TGI,[18],> 82.9 µM
same,GI50,[19],12.2 µM
same,TGI,[19],> 100 µM
same,TGI,[20],> 100 µM
same,TGI,[21],17.8 µM
same,TGI,[22],> 100 µM
same,GI50,[23],4.31 µM
same,TGI,[23],> 100 µM
same,TGI,[24],27.2 µM
same,TGI,[25],19.2 µM
same,TGI,[26],40 µM
same,TGI,[27],26.7 µM
same,TGI,[28],> 100 µM
same,TGI,[29],> 100 µM
same,TGI,[30],> 100 µM
same,TGI,[31],> 100 µM
same,TGI,[32],> 100 µM
same,TGI,[33],> 100 µM
same,GI50,[34],2.53 µM
same,TGI,[34],57.8 µM
same,TGI,[35],> 100 µM
same,TGI,[36],> 100 µM
same,TGI,[37],> 100 µM
same,GI50,[38],5.05 µM
same,TGI,[38],77.6 µM
same,TGI,[39],> 100 µM
same,TGI,[40],> 100 µM
same,TGI,[41],34.5 µM
same,TGI,[42],> 60.5 µM
same,TGI,[43],> 100 µM
same,TGI,[44],23.6 µM
same,TGI,[45],> 100 µM
same,TGI,[46],> 100 µM
same,TGI,[47],61 µM
same,GI50,[48],1.94 µM
same,TGI,[48],> 100 µM
same,TGI,[49],51.4 µM
same,TGI,[50],> 67 µM
same,TGI,[51],> 100 µM
same,TGI,[52],> 100 µM
same,TGI,[53],> 100 µM
same,TGI,[54],42.7 µM
same,TGI,[55],> 100 µM
same,TGI,[56],> 100 µM
same,TGI,[57],> 100 µM
same,TGI,[58],> 72.2 µM
same,TGI,[59],> 100 µM
NS(=O)(=O)c1ccc(NC(=O)c2ccc3nc4ccccc4c(Nc4ccc(S(N)(=O)=O)cc4)c3c2)cc1,TGI,[1],> 100 µM
same,TGI,[2],> 100 µM
same,TGI,[3],> 100 µM
same,TGI,[4],> 100 µM
same,TGI,[5],> 100 µM
same,TGI,[6],> 100 µM
same,TGI,[7],> 100 µM
same,TGI,[8],> 100 µM
same,TGI,[9],> 100 µM
same,TGI,[10],> 100 µM
same,TGI,[11],> 100 µM
same,TGI,[12],> 100 µM
same,TGI,[13],> 100 µM
same,TGI,[14],> 100 µM
same,TGI,[15],> 100 µM
same,TGI,[16],> 100 µM
same,TGI,[17],> 100 µM
same,TGI,[18],> 100 µM
same,TGI,[19],> 100 µM
same,TGI,[20],> 100 µM
same,TGI,[21],> 100 µM
same,TGI,[22],> 100 µM
same,TGI,[23],> 100 µM
same,TGI,[24],> 100 µM
same,TGI,[25],> 100 µM
same,TGI,[26],> 100 µM
same,TGI,[27],> 100 µM
same,TGI,[28],> 100 µM
same,TGI,[29],> 100 µM
same,TGI,[30],> 100 µM
same,TGI,[31],> 100 µM
same,TGI,[32],> 100 µM
same,TGI,[33],> 100 µM
same,TGI,[34],> 100 µM
same,TGI,[35],> 100 µM
same,TGI,[36],> 100 µM
same,TGI,[37],> 100 µM
same,TGI,[38],> 100 µM
same,TGI,[39],> 100 µM
same,TGI,[40],> 100 µM
same,TGI,[41],> 100 µM
same,TGI,[42],> 100 µM
same,TGI,[43],> 100 µM
same,TGI,[44],> 100 µM
same,TGI,[45],> 100 µM
same,TGI,[46],> 100 µM
same,TGI,[47],> 100 µM
same,TGI,[48],> 100 µM
same,TGI,[49],> 100 µM
same,TGI,[50],> 100 µM
same,TGI,[51],> 100 µM
same,TGI,[52],> 100 µM
same,TGI,[53],> 100 µM
same,TGI,[54],> 100 µM
same,TGI,[55],> 100 µM
same,TGI,[56],> 100 µM
same,TGI,[57],> 100 µM
same,TGI,[58],> 100 µM
same,TGI,[59],> 100 µM
CC(C)C(=O)/C=C/c1c(Cl)cccc1Cl,TGI,[1],9.13 µM
same,TGI,[2],19.1 µM
same,TGI,[3],3.11 µM
same,TGI,[4],5.83 µM
same,TGI,[5],16 µM
same,TGI,[6],> 100 µM
same,TGI,[7],> 100 µM
same,TGI,[8],22.6 µM
same,TGI,[9],16.2 µM
same,TGI,[10],11.3 µM
same,TGI,[11],13.8 µM
same,TGI,[12],> 100 µM
same,TGI,[13],11.2 µM
same,TGI,[14],9.81 µM
same,TGI,[15],9.27 µM
same,TGI,[16],11.8 µM
same,TGI,[17],7.99 µM
same,TGI,[18],6.56 µM
same,TGI,[19],8.38 µM
same,TGI,[20],13.6 µM
same,TGI,[21],> 100 µM
same,TGI,[22],8.01 µM
same,TGI,[23],9.4 µM
same,TGI,[24],> 100 µM
same,TGI,[25],18.2 µM
same,TGI,[26],35.5 µM
same,TGI,[27],29 µM
same,TGI,[28],11.7 µM
same,TGI,[29],7.24 µM
same,TGI,[30],20.1 µM
same,TGI,[31],26 µM
same,TGI,[32],9.31 µM
same,TGI,[33],17.8 µM
same,TGI,[34],19 µM
same,TGI,[35],21.9 µM
same,TGI,[36],7.32 µM
same,TGI,[37],11.9 µM
same,TGI,[38],9.72 µM
same,TGI,[39],15.8 µM
same,TGI,[40],14.7 µM
same,TGI,[41],22.4 µM
same,TGI,[42],8.94 µM
same,TGI,[43],11.8 µM
same,TGI,[44],> 100 µM
same,TGI,[45],17.7 µM
same,TGI,[46],20.5 µM
same,TGI,[47],6.69 µM
same,TGI,[48],14.2 µM
same,TGI,[49],24.5 µM
same,TGI,[50],5.68 µM
same,TGI,[51],24.4 µM
same,TGI,[52],9.23 µM
same,TGI,[53],7.44 µM
same,TGI,[54],17.9 µM
same,TGI,[55],24.3 µM
same,TGI,[56],10.5 µM
same,TGI,[57],13.6 µM
same,TGI,[58],26.6 µM
same,TGI,[59],20.5 µM
